Paper PMC8304783, “Antiadhesive Properties of Imidazolium Ionic Liquids Based on (−)-Menthol Against Candida spp” (International Journal of Molecular Sciences, 2021)

Tests used:
C. albicans [1] = test: Yeast-to-hyphae transition (FBS-induced hyphae formation); type: cell-based; settings: FBS-induced (10%), ILs 25 µM, 2 h, 37 °C; control 94 ± 0.6%
Experimental: (§1) Fungal adhesion to biomedical surfaces is strongly related to the structure of the cell wall, and the presence of adhesins (Als proteins) on the surface of the cell. In turn, the progression to biofilm formation is dependent on the ability of C. albicans to form hyphae. In conditions similar to those above (ILs conc. = 25 µM), we examined C. albicans cell wall integrity, its ability to form hyphae, and the level of ALS genes expression, encoding Als1 and Als5 adhesins (Figure 3). […] Despite some reduction, the result was not statistically significant (p = 0.12). On the other hand, after the treatment with IL 2a, the expression of ALS1 and ALS5 genes was reduced by 50 or 55%, respectively (Figure 3C). The results were statistically significant in both cases (p = 0.04 for either ALS gene). However, in case of compounds with alkyl substituents (1a and 1b), the reduction of gene expression was to a lesser degree. […] Despite observing a chain-length dependence, the results were not statistically significant (p = 0.07 for both ALS gene after treatment with 1b).
Experiments were performed as described before, with modifications. YPD-grown C. albicans were pelleted, washed with fresh YPD medium and resuspended in YPD medium (OD600 = 0.4). The suspensions were treated with ILs (conc. = 25 µM) and FBS (final conc. = 10%) for 2 h at 37 °C. The samples were observed under the Zeiss Axio Imager A2 microscope equipped with Canon PowerShot G10 camera for assessment of cell morphology. For quantitative estimation, cells of each assay were counted in three independent repetitions determining the percentage of hyphae forming cells.

C. albicans [2] = test: Calcofluor white staining (cell wall integrity); type: cell-based; settings: ILs 25 µM, 2 h, 37 °C
Experimental: as §1
Calcofluor white was used to assess cell wall integrity in C. albicans, following our protocol. YPD-grown C. albicans cells were pelleted, washed with PBS and treated with ILs (conc. = 25 µM) for 2 h at 37 °C. Afterwards, the samples were washed with PBS, stained with calcofluor white (final conc. = 25 µM) for 5 min. Then, cell suspensions were washed with PBS, pelleted and observed under the Zeiss (Poznań, Poland) Axio Imager A2 microscope equipped with Zeiss Axiocam 503 mono microscope camera and the Zeiss HBO100 mercury lamp.

ALS1 = test: Real time quantitative PCR, relative gene expression; type: cell-based, C. albicans; settings: ILs 25 µM, 2 h; relative to untreated cells (100%)
Experimental: as §1
(§2) Figure 3 (A) C. albicans calcofluor white staining following a 2 h treatment with 1a,2a,1b ILs (conc. = 25 µM). Control experiment represents untreated calcofluor white-stained cells. Scale bar = 2.5 µm. (B) FBS-induced hyphae formation after 2 h treatment with 1a,2a,1b ILs (conc. = 25 µM). Control condition was C. albicans treated with FBS only. Scale bar = 10 µm. (C) Relative ALS1 and ALS5 gene expression in C. albicans following a 2 h treatment with 1a,2a,1b ILs (conc. = 25 µM). Gene expression levels are reported as means of 2^−∆∆CT values (n = 6) ± SD; normalized to 100% for untreated cells (control). Statistical analyses were performed by comparing expression under treatment with each IL to untreated cells. * p < 0.05.
(§3) YPD-grown C. albicans cells were pelleted, washed with PBS and treated with ILs (conc. = 25 µM) for 2 h at 37 °C. Next, the cells were pelleted, and concentrated (PBS; OD600 = 20). RNA was isolated using the Total RNA Mini Kit (A&A Biotechnology, Gdańsk, Poland). Synthesis of cDNA and calculation of gene expression levels were performed as previously described. The following gene-specific primers were used: ACT1_F (5′-TCCAGCTTTCTACGTTTCCA-3′), ACT1_R (5′-GTCAAGTCTCTACCAGCCAA-3′), ALS1_F (5′-TGTTGGTGTGACTACTTCCT-3′), ALS1_R (5′-TGT ACC ACT GTG TCA AT-3′), ALS5_F (5′-CTCCACTAGTTATGGGGATGT-3′) and ALS5_R (5′-TGAGGGAGAAATATAAGCGTCA-3′).

ALS5 = test: as above; type: cell-based, C. albicans; settings: ILs 25 µM, 2 h; relative to untreated cells (100%)
Experimental: as §1, §2, §3

Row | Structure (SMILES) | Percentage of cells forming hyphae (C. albicans [1]) [%] | Calcofluor white staining of chitin (cell wall integrity) (C. albicans [2]) | Reduction of ALS1 gene expression (ALS1) [%] | Reduction of ALS5 gene expression (ALS5) [%]
1 | CCCCCCCCCn1cc[n+](CO[C@@H]2C[C@H](C)CC[C@H]2C(C)C)c1 [1a, 1-[(1R,2S,5R)-(−)-menthoxymethyl]-3-nonylimidazolium chloride] | < 1 | well-defined, intense chitin fluoresce with clearly visible bud scars, comparable with the control staining | 20 | 10
2 | CCCCCCCCCCn1cc[n+](CO[C@@H]2C[C@H](C)CC[C@H]2C(C)C)c1 [1b, 3-decyl-1-[(1R,2S,5R)-(−)-menthoxymethyl]imidazolium chloride] | < 1 | well-defined, intense chitin fluoresce with clearly visible bud scars, comparable with the control staining | 45 | 40
3 | CCCCCCCCCOCn1cc[n+](CO[C@@H]2C[C@H](C)CC[C@H]2C(C)C)c1 [2a, 1-(1R,2S,5R)-(−)-menthoxymethyl-3-nonyloxymethylimidazolium chloride] | 78.2 ± 17.2 | low fluorescence intensity and thinner calcofluor white-stained chitin layer surrounding cells than the controls | 50 | 55
